In paper PMC7419010 (PLoS Pathogens, 2020):

What was measured:
[1] = biological target: T1, Lsa-nAChR2 (α3β1β2) (Lepeophtheirus salmonis, UniProt A0A7S5PZ03+A0A7S5PZ05+A0A7S5Q7H3); test: cell-based; type: cell-based
Experimental: (§1) Capped cRNAs were synthesized (T7 mMessage mMachine kit, Ambion, Austin, TX, USA) from the linearized vectors containing the different subunits according to the manufacturer’s protocol. cRNA samples were stored at -80°C until use. Oocytes were ordered from Ecocyte (Germany). Oocytes were microinjected using a Roboinject automatic injection system (Multi Channel Systems, Reutlingen, Germany) with 15–25 nl of cRNA solution (30–300 ng/μl per subunit) and then incubated at 18°C in sterile filtered Barth solution containing: NaCl (88 mM), KCl (1 mM), NaHCO3 (2.4 mM), HEPES (10 mM, pH 7.5), MgSO4·7H2O (0.82 mM), Ca(NO3)2·4H2O (0.33 mM), CaCl2·6H2O (0.41 mM), at pH 7.4, and supplemented with 20 μg/ml of kanamycin, 100 U/ml benzylpenicillin and 100 μg/ml streptomycin. Recordings were made 3–5 days post-cRNA injection.
(§2) Oocytes were impaled with two electrodes filled with 3 M KCl, and their membrane potentials were maintained at -80 mV throughout the experiment. Currents evoked by ACh or drugs were recorded using an automated process equipped with standard two-electrode voltage-clamp configuration (HiClamp, MultiChannel Systems). The principle of this system differs from standard electrophysiology because, instead of applying the compound in the perfusion, the oocyte is moved into a well from a 96-well microtiter plate containing the desired solution. Data were captured at 100 Hz, filtered at 10 Hz, and analyzed using proprietary data acquisition and analysis software running under Matlab (Mathworks Inc., Natick, MA, USA). Additional analyses were performed in Excel (Microsoft, Redmond, WA, USA). […] Concentration-activation curves were fitted with the equation: Y=100/1+10^H(logEC50−X) (1) where Y is the normalized response, logEC50 is the logarithm of the concentration of agonist eliciting half-maximal current amplitude, X is the log of dose or concentration, and H is the slope factor or Hill slope. Individual curves were standardized to the initial ACh (100 μM) application amplitude and subsequently averaged. EC50 values were determined from the mean of at least 3 or more cells.
(§3) Dose-response curves were obtained by sequential applications for 10s of increasing concentrations of ACh or drugs to oocytes expressing Lsa-nAChR1 or Lsa-nAChR2. A total time of 90 s time was allowed between applications for the channel to recover from any desensitization. To test the antagonistic effect of DHbE (Fig 5) and for the screening protocol (Fig 6), cells that evoked a significant current with ACh were exposed to the test compounds at 10 μM respectively 1 μM using a pre-application of 45 s and co-application of 10 s with ACh (1 μM).

[2] = biological target: T2, Lsa-nAChR1 (α1α2β1β2) (Lepeophtheirus salmonis, UniProt A0A7S5PZ05+A0A7S5Q3W4+A0A7S5Q7H3+A0A7S5U9A3); test: cell-based; type: cell-based
T2 sequence (A0A7S5PZ05 entry or part of it): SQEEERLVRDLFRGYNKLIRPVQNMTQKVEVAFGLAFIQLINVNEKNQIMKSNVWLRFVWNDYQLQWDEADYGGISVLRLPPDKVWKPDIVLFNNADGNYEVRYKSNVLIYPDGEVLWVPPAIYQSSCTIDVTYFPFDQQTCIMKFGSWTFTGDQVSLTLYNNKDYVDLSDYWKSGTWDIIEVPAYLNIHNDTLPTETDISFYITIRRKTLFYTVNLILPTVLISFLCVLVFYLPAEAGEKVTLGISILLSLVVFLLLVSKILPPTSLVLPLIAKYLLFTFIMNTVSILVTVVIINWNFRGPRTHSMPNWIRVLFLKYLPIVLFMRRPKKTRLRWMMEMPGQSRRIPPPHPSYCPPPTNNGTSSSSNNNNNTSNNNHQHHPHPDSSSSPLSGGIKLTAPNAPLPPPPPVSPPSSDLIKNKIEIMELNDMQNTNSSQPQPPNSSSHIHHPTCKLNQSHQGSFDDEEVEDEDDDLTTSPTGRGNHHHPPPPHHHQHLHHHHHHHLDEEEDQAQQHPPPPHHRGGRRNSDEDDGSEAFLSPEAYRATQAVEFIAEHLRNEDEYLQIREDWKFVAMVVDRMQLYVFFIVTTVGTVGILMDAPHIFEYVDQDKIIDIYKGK
T2 sequence (A0A7S5Q3W4 entry or part of it): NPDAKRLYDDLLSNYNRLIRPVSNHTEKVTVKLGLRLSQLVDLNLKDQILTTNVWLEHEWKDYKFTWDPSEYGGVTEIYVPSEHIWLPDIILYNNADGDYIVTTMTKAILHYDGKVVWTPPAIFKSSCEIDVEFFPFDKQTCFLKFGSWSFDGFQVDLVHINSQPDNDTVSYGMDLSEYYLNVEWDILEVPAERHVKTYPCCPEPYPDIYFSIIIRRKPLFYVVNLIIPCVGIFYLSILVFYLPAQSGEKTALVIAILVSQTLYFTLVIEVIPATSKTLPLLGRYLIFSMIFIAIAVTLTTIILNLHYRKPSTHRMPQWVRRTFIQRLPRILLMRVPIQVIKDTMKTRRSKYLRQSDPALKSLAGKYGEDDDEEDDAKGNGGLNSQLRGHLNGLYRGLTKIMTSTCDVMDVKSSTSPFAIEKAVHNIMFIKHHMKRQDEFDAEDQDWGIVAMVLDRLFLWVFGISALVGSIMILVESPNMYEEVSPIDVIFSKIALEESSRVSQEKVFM
T2 sequence (A0A7S5U9A3 entry or part of it): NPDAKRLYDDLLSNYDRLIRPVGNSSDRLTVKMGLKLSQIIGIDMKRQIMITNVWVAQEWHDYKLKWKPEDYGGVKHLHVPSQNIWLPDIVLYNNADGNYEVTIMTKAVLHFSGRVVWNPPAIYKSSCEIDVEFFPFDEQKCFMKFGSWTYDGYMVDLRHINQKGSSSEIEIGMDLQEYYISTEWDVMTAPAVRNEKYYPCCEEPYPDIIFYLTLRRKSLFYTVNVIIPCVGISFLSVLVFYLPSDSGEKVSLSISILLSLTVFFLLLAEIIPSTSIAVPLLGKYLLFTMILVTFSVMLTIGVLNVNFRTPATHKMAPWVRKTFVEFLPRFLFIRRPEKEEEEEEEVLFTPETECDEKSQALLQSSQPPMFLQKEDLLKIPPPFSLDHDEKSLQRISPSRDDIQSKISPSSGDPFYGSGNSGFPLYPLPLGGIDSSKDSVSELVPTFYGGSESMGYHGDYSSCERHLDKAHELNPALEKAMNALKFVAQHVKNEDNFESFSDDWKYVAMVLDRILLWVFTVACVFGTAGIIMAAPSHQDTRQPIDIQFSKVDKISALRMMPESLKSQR
T2 sequence (A0A7S5Q7H3 entry or part of it): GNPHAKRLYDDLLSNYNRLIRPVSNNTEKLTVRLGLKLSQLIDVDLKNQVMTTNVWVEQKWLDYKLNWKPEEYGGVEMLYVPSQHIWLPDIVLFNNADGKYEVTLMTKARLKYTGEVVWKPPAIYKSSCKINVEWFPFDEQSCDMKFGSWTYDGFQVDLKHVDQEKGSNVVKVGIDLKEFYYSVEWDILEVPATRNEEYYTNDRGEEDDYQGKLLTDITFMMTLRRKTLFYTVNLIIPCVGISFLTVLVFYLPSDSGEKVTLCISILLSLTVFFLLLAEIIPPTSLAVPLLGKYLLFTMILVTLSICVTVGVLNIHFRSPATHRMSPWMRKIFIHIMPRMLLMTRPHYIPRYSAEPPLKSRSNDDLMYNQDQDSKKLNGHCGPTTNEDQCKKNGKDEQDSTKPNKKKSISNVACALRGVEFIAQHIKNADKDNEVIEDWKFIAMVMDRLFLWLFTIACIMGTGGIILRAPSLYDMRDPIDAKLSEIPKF
Experimental: as §1, §2, §3

[3] = test system: six nAChR subunits (α1, α2, α3, α7, β1 and β2) and the three APs; test: Two-electrode voltage-clamp, oocytes co-injected with all six nAChR subunits and three ancillary proteins; type: cell-based, Lepeophtheirus salmonis; settings: equimolar co-injection
Description: (§4) To determine the subunit composition of the functional L. salmonis nAChR channel, we tried different possible combinations of the six nAChR subunit (α1, α2, α3, α7, β1 and β2) cRNAs along with the cRNAs from the three AP, injected into X. laevis oocytes, which is one of the most commonly used systems for functional expression of nAChRs. Three to five days after injection, the presence of a functional nAChR was investigated by the two-electrode voltage-clamp method. To determine the relative contribution of each gene for the functional expression of nAChR, we removed cRNAs from the injection mixture, either singularly or in combination (Fig 2). […]
(§5) Oocytes were impaled with two electrodes filled with 3 M KCl, and their membrane potentials were maintained at -80 mV throughout the experiment. Currents evoked by ACh or drugs were recorded using an automated process equipped with standard two-electrode voltage-clamp configuration (HiClamp, MultiChannel Systems). […] Data were captured at 100 Hz, filtered at 10 Hz, and analyzed using proprietary data acquisition and analysis software running under Matlab (Mathworks Inc., Natick, MA, USA). […] Plots of the peak inward currents as a function of the logarithm of the agonist concentration yield classical concentration-activation curves were readily fitted by single Hill equations. […]

[4] = test system: Lsa-nAChR-α1 and Lsa-nAChR-α2 with Lsa-nAChR-β1 and APs (Lsa-nAChR-β2 removed); test: Two-electrode voltage-clamp, oocytes with Lsa-nAChR-α1, -α2, -β1 and APs (Lsa-nAChR-β2 removed); type: cell-based, Lepeophtheirus salmonis; settings: Lsa-nAChR-β2 removed from injection mix
Description: as §4, §5

[5] = test system: hybrid Locusta migratoria/Rattus norvegicus nAChR; set-up: method as in earlier work; settings: hybrid receptor in Xenopus oocytes; ref 25 (Bao et al.); cited from earlier work
[6] = biological target: T1, Lsa-nAChR2 (α3β1β2); type: cell-based; settings: co-applied at 10 μM, both ratios (10:1 and 1:10)
[7] = biological target: T2, Lsa-nAChR1 (α1α2β1β2); type: cell-based; settings: co-applied at 10 μM, both ratios (10:1 and 1:10)
[8] = oocytes exposed to acetylcholine

Row | SMILES | type of effect on the receptor (agonist / partial-agonist / super-agonist / no effect) ([1]; dose-response, 1:1 (α:β) ratio) | Max peak (% Ach) ([1]; maximal peak current compared to ACh 100 μM, 1:1 (α:β) ratio) | averaged maximum response [1, 8] | Mean Hill Slope ± SD ([1]; ratio α/β 1:10) | Mean max current (μA) ([1]; ratio α/β 1:10) | Mean Hill Slope ± SD ([1]; ratio α/β 10:1) | Mean max current (μA) ([1]; ratio α/β 10:1) | current (median) with 100 μM ACh ([2]; Lsa-nAChR-α1 and -α2 with both β subunits and APs) | type of effect on the receptor (agonist / partial-agonist / no effect) ([2]; dose-response, 1:1 (α:β) ratio) | averaged maximum response [2, 8] | Mean Hill Slope ± SD ([2]; ratio α/β 1:10) | Mean max current (μA) ([2]; ratio α/β 1:10) | Mean Hill Slope ± SD ([2]; ratio α/β 10:1) | Mean max current (μA) ([2]; ratio α/β 10:1) | Emax ([2]; read-out: Max peak (% Ach)) | current (median) with 100 μM ACh [3] | current (median) with 100 μM ACh [4] | maximum response to acetylcholine [5] | inhibition of the ACh-triggered (10 μM) response [6] | inhibition of the ACh-triggered (10 μM) response [7]
1 | CC(=O)OCC[N+](C)(C)C [Acetylcholine] | agonist | 100% | > 5 μA | 1.25 ± 0.23 | 3.17 μA | 1.30 ± 0.22 | 2.52 μA | 4.50 μA | agonist | > 5 μA | 1.44 ± 0.52 | 8.35 μA | 1.46 ± 0.37 | 4.85 μA | 100% | 17.00 μA | 0.17 μA | 0.24 μA |  | 
2 | CO[C@H]1CC=C2CCN3CCC4=C(CC(=O)OC4)[C@]23C1 [DHbE, Dihydro-β-erythroidine] |  |  |  |  |  |  |  |  |  |  |  |  |  |  |  |  |  |  | completely inhibit | completely inhibit
